Experimental data from ChEMBL document CHEMBL5230103, “Hydroxamic acid hybrids as the potential anticancer agents: An Overview” (Eur J Med Chem, 2020).

Legend:
Histone deacetylase = test: Inhibition of HDAC (unknown origin); format: protein assay, Homo sapiens
PC-3 [1] = test: Cytotoxicity against human PC-3 cells assessed as inhibition of cell growth by SRB assay; format: functional, cell-based
A549 = test: Cytotoxicity against human A549 cells assessed as inhibition of cell growth by SRB assay; format: functional
HCT-116 [2] = test: Cytotoxicity against human HCT-116 cells assessed as inhibition of cell growth by SRB assay; format: functional, cell-based
Hep 3B2 = test: Cytotoxicity against human Hep3B cells assessed as inhibition of cell growth by MTT assay; format: functional
[3] = molecular target: Histone deacetylase (Homo sapiens) (UniProt Q13547+O15379+Q9UBN7+Q92769+Q9UQL6+Q8WUI4+Q9BY41+Q96DB2+P56524+Q9UKV0+Q969S8); test: Potency index, ratio of vorinostat IC50 to test compound IC50 for inhibition of HDAC (unknown origin); format: protein assay
HL-60 = test: Antiproliferative activity against human HL-60 cells assessed as inhibition of cell growth by MTT assay; format: functional, cell-based
U-937 [4] = test: Antiproliferative activity against human U-937 cells assessed as inhibition of cell growth by MTT assay; format: functional, cell-based
NCI-H929 = test: Antiproliferative activity against human NCI-H929 cells assessed as inhibition of cell growth by MTT assay; format: functional, cell-based
U-266 = test: Antiproliferative activity against human U-266 cells assessed as inhibition of cell growth by MTT assay; format: functional, cell-based
SH-SY5Y = test: Antiproliferative activity against human SH-SY5Y cells assessed as inhibition of cell growth by MTT assay; format: functional, cell-based
MCF7 [5] = test: Antiproliferative activity against human MCF7 cells assessed as inhibition of cell growth by MTT assay; format: functional, cell-based
518A2 = test: Cytotoxicity against human 518A2 cells assessed as inhibition of cell growth by MTT assay; format: functional, cell-based
HCT-116 [6] = test: Cytotoxicity against human HCT-116 cells assessed as inhibition of cell growth by MTT assay; format: functional, cell-based
PANC-1 = test: Cytotoxicity against human PANC-1 cells assessed as inhibition of cell growth by MTT assay; format: functional, cell-based
HT-29 = test: Cytotoxicity against human HT-29 cells assessed as inhibition of cell growth by MTT assay; format: functional, cell-based
[7] = Cytotoxicity against human MCF7/Topo cells assessed as inhibition of cell growth by MTT assay; format: functional, cell-based
KB-V1 = test: Cytotoxicity against human vinblastine resistant KB-V1 cells assessed as inhibition of cell growth by MTT assay; format: functional, cell-based
[8] = Cytotoxicity against chicken heart fibroblast cells; format: toxicity, cell-based, Gallus gallus
Histone deacetylase 2 = Histone deacetylase 2 (Homo sapiens, UniProt Q92769); test: Inhibition of HDAC2 (unknown origin)
Chain of Histone deacetylase 2 (Q92769 whole entry): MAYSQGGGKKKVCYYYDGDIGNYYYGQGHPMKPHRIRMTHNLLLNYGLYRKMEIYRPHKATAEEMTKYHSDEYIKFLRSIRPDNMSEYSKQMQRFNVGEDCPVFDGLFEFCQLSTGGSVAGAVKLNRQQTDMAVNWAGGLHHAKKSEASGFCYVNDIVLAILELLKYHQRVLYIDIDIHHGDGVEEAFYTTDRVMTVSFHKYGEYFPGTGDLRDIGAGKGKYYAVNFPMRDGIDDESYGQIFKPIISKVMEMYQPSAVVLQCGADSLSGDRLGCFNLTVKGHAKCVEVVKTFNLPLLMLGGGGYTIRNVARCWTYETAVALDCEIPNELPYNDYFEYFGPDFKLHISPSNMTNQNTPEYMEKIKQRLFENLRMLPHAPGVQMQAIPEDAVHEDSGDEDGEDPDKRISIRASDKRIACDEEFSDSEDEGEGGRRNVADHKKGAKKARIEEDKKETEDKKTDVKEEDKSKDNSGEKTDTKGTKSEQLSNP

ASPC1 [9] = test: Cytotoxicity against human ASPC1 cells assessed as inhibition of cell growth by SRB assay; format: functional, cell-based
SW-620 [10] = test: Cytotoxicity against human SW620 cells assessed as inhibition of cell growth by SRB assay; format: functional, cell-based
SW-620 [11] = test: Potency index, ratio of vorinostat IC50 to test compound IC50 for cytotoxicity against human SW620 cells assessed as inhibition of cell growth by SRB assay; format: functional
PC-3 [12] = test: Potency index, ratio of vorinostat IC50 to test compound IC50 for cytotoxicity against human PC-3 cells assessed as inhibition of cell growth by SRB assay; format: functional
ASPC1 [13] = test: Potency index, ratio of vorinostat IC50 to test compound IC50 for cytotoxicity against human ASPC1 cells assessed as inhibition of cell growth by SRB assay; format: functional
MCF7 [14] = test: Cytotoxicity against human MCF7 cells assessed as inhibition of cell growth by MTT assay; format: functional, cell-based
HepG2 [15] = test: Cytotoxicity against human HepG2 cells assessed as inhibition of cell growth by MTT assay; format: functional, cell-based
SMMC-7721 = test: Cytotoxicity against human SMMC-7721 cells assessed as inhibition of cell growth by MTT assay; format: functional, cell-based
NCI-H460 = test: Cytotoxicity against human NCI-H460 cells assessed as inhibition of cell growth by MTT assay; format: functional, cell-based
EJ = test: Cytotoxicity against human EJ cells assessed as inhibition of cell growth by MTT assay; format: functional, cell-based
MDA-MB-231 = test: Antitumor activity against human MDA-MB-231 cells xenografted in mouse assessed as reduction on tumor volume at 20 mg/kg, ip relative to control; format: functional; parameters: scale not given: the % may be the effect or the level left
MCF7 [16] = test: cells; format: functional, cell-based; conditions: Homo sapiens, MCF7, 72 h
Description: Cytotoxicity against human MCF7 cells assessed as inhibition of cell growth measured after 72 hrs by MTT assay

U2OS = test: cells; format: functional, cell-based; conditions: Homo sapiens, 72 h
Description: Cytotoxicity against human U2OS cells assessed as inhibition of cell growth measured after 72 hrs by MTT assay

HepG2 [17] = test: Cytotoxicity against human HepG2 cells assessed as inhibition of cell growth measured after 72 hrs by MTT assay; format: functional, cell-based; conditions: HepG2, 72 h
Plasmodium falciparum [18] = test: Antimalarial activity against erythrocytic stage of chloroquine susceptible Plasmodium falcipuram 3D7 measured after 3 days by HRP2-ELISA; format: functional, organism-based; conditions: 3D7, 72 h
Plasmodium falciparum [19] = test: Antimalarial activity against erythrocytic stage of chloroquine resistant Plasmodium falcipuram Dd2 measured after 3 days by HRP2-ELISA; format: functional, organism-based; conditions: Dd2, 72 h
Plasmodium berghei = test: Antimalarial activity against hepatic stage of Plasmodium berghei infected in human Huh-7 cells preincubated for 1 hr followed by parasite addition and measured after 48 hrs by bioluminescence assay; format: functional, organism-based
U-937 [20] = test: Cytotoxicity against human U-937 cells assessed as inhibition of cell growth by MTT assay; format: functional, cell-based
K562 = test: Cytotoxicity against human K562 cells assessed as inhibition of cell growth by MTT assay; format: functional, cell-based
PLC-PRF-5 = test: Cytotoxicity against human PLC-PRF-5 cells assessed as inhibition of cell growth by MTT assay; format: functional, cell-based
PC-3 [21] = test: Cytotoxicity against human PC-3 cells assessed as inhibition of cell growth by MTT assay; format: functional, cell-based
ES-2 = test: Cytotoxicity against human ES2 cells assessed as inhibition of cell growth by MTT assay; format: functional, cell-based

CCn1c(C)c(CCNS(=O)(=O)c2ccc(/C=C/C=C/C(=O)NO)cc2)c2ccccc21
IC50 (Histone deacetylase): 3.3 nM
GI50 (PC-3 [1]): 20 nM
GI50 (A549): 20 nM
GI50 (HCT-116 [2]): 20 nM
GI50 (Hep 3B2): 20 nM
Ratio IC50 [3]: 35

O=C(NO)c1cn(C2CCN(C(=O)c3ccc(-c4ccccc4)cc3)CC2)nn1
IC50 (HL-60): 1200 nM
IC50 (U-937 [4]): 1200 nM
IC50 (NCI-H929): 1200 nM
IC50 (U-266): 1200 nM
IC50 (SH-SY5Y): 1200 nM
IC50 (MCF7 [5]): 1200 nM

CCn1cnc(-c2ccc(OC)cc2)c1-c1ccc(/C=C/C(=O)NO)cc1
IC50 (518A2): 300 nM
IC50 (HCT-116 [6]): 300 nM
IC50 (PANC-1): 300 nM
IC50 (HT-29): 300 nM
IC50 [7]: 300 nM
IC50 (KB-V1): 300 nM
IC50 [8]: > 150000 nM

O=C(/C=C/c1ccc(CN2C/C(=N\O)c3cc(Cl)ccc32)cc1)NO
IC50 (Histone deacetylase 2): 86 nM
IC50 (PC-3 [1]): 470 nM
IC50 (ASPC1 [9]): 470 nM
IC50 (SW-620 [10]): 470 nM
Ratio IC50 (SW-620 [11]): 1.8
Ratio IC50 (PC-3 [12]): 1.8
Ratio IC50 (ASPC1 [13]): 1.8

CC(C)=CCC/C(C)=C/CC/C(C)=C/CSc1ccccc1C(=O)NCCC(=O)NO
IC50 (MCF7 [14]): 4930 nM
IC50 (HepG2 [15]): 4930 nM
IC50 (SMMC-7721): 4930 nM
IC50 (NCI-H460): 4930 nM
IC50 (EJ): 4930 nM

CC(C)=CCC/C(C)=C/CC/C(C)=C/CSc1ccccc1C(=O)NCCCC(=O)NO
IC50 (MCF7 [14]): 4930 nM
IC50 (HepG2 [15]): 4930 nM
IC50 (SMMC-7721): 4930 nM
IC50 (NCI-H460): 4930 nM
IC50 (EJ): 4930 nM

O=C(CCCCCCC(=O)Nc1cccc2ccn(S(=O)(=O)c3ccccc3)c12)NO
Activity (MDA-MB-231): 68%

COc1cc(NC(C)CCCCCNC(=O)CCC(=O)NO)c2ncccc2c1 (stereo not drawn)
IC50 (MCF7 [16]): 1600 nM
IC50 (U2OS): 3300 nM
IC50 (HepG2 [17]): 1600 nM
IC50 (Plasmodium falciparum [18]): 300 nM
IC50 (Plasmodium falciparum [19]): 300 nM
IC50 (Plasmodium berghei): 300 nM

CC(C)C[C@H](NC(=O)[C@@H](O)[C@H](N)Cc1ccccc1)C(=O)O [UBENIMEX]
IC50 (U-937 [20]): > 500000 nM
IC50 (K562): > 500000 nM
IC50 (PLC-PRF-5): > 500000 nM
IC50 (PC-3 [21]): > 500000 nM
IC50 (ES-2): > 500000 nM
IC50 (HepG2 [15]): > 500000 nM

CO/N=C1\CN(Cc2ccc(/C=C/C(=O)NO)cc2)c2ccc(F)cc21
IC50 (Histone deacetylase 2): 267 nM
IC50 (PC-3 [1]): 470 nM
IC50 (ASPC1 [9]): 470 nM
IC50 (SW-620 [10]): 470 nM
Ratio IC50 (SW-620 [11]): 1.8
Ratio IC50 (PC-3 [12]): 1.8
Ratio IC50 (ASPC1 [13]): 1.8

COc1ccc(-c2ncn(C)c2-c2ccc(/C=C/C(=O)NO)cc2)cc1
IC50 (518A2): 300 nM
IC50 (HCT-116 [6]): 300 nM
IC50 (PANC-1): 300 nM
IC50 (HT-29): 300 nM
IC50 [7]: 300 nM
IC50 (KB-V1): 300 nM
IC50 [8]: > 150000 nM
